Test results reported in publication PMC12520178, “Turn-engineering tunes the conformational rigidity of β-hairpin AMPs in achieving membrane selectivity and killing drug-resistant ESKAPE pathogens” (Chemical Science, 2025).
Converted amounts (≈) assume the structure as drawn. Where two headings read alike, the source gives them in different places. Where a SMILES comes first, the peptide text is derived from it. Bridges are numbered along the chain shown (N, C = ends). [ ]: non-standard residue; d: D form. NMeR = CN[C@@H](CCCNC(=N)N)C(=O)O; dNMeR = CN[C@H](CCCNC(=N)N)C(=O)O

What was measured:
Acinetobacter baumannii = assay type: cell-based
Staphylococcus aureus = assay: microbe, parasite or virus in culture; assay type: cell-based
human red blood cells [1] = details: cited from earlier work
Excerpt: These motifs were chosen based on their ability to induce 81% (-D-Ala-NMeArg–) and 92% (-D-Val-NMeArg-) β-hairpin folded fractions within a 12-mer linear peptide in aqueous solution.[24]

Klebsiella pneumoniae = assay type: cell-based
Pseudomonas aeruginosa = assay type: cell-based
Escherichia coli = assay type: cell-based
[2] = test system: polymyxin B-resistant A. baumannii; details: induced polymyxin B-resistant A. baumannii
[3] = Acute in-vivo toxicity assessment; details: mice
[4] = test system: polymyxin B-resistant P. aeruginosa; details: induced polymyxin B-resistant P. aeruginosa
human red blood cells [5] = details: red cells of human
[6] = test system: human peripheral blood mononuclear cells (PBMCs); details: 24 h, 40
Proteinase K = Proteinase K (Parengyodontium album, UniProt P06873); assay: Proteolytic digestion with Proteinase K; assay type: in vitro ADME; details: 100 µM peptide, 1X TBS pH 7.5, ratio 1:200, 37 °C, HPLC, 0 to 720 min
Procedure: Figure S15: Proteolytic degradation profiles of a. 4d and b. 4f after incubation with Proteinase K. The five overlaid chromatograms represent […] different time-points: 0 min, 2 min, 60 min, 480 min and 720 min. The identity of the peptide at different time points were monitored using MALDI-TO F.
Figure S16: a. PI uptake by A. baumannii and S. aureus, when treated with different concentrations of 4f for 10 min, monitored using flow-cytometry. b. SEM images of untreated control cells and 5 times of […]
Radial Distribution Function
The radial distribution function (g(r)) was computed to investigate the local density of specific lipid headgroups around key peptide residues. […]
The interaction energy between the peptide and membrane components was computed to quantify the binding affinity and identify the driving forces for the interaction. Using GROMACS, the production trajectories were re-analyzed by defining energy groups for the protein and different membrane components. […]
The metabolic stability of peptides (1,1d,1f and 3,3d,3f) were evaluated against two proteases-chymotrypsin and trypsin at a concentration of 100 µM. The metabolic stability of 4f was evaluated by incubating 100 µM of peptide with a more promiscuous enzyme i.e. Proteinase K. Peptides were incubated with different enzyme to peptide ratio for different time intervals at 37 ° C. […]

[7] = Rapid equilibrium dialysis (RED) plasma protein binding; details: plasma spiked with 100 μM peptide, buffer pH 7.4, 37 °C, 4 h, HPLC
human red blood cells [8] = assay: Hemolysis assay against human red blood cells; details: ≥10% hemolysis against human RBCs; 4% (v/v) hRBCs in PBS, 1.5 h at 37 °C, 405 nm; n = 3

Sequence of Proteinase K (P06873 106-384): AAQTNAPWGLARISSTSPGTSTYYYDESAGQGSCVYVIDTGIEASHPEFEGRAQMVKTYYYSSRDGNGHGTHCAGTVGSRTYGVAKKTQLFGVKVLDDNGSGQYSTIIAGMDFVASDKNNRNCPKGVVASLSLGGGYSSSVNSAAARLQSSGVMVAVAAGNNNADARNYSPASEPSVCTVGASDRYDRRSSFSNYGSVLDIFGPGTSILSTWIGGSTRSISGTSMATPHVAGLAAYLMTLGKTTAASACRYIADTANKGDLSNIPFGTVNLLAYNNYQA

| SMILES | MIC (μM) ab (Acinetobacter baumannii) | MIC (μM) sa (Staphylococcus aureus) | hemolysis (toxicity) (human red blood cells [1]) | MIC (μM) kp (Klebsiella pneumoniae) | MIC (μM) pa (Pseudomonas aeruginosa) | MIC90 (Escherichia coli) | MIC (μM) ec (Escherichia coli) | MIC [2] | signs of acute toxicity ([3]; 10 mg kg^−1, intraperitoneally, monitored till 72 h) | signs of acute toxicity ([3]; 20 mg kg^−1, intraperitoneally, at 48 h, transient) | signs of acute toxicity ([3]; 40 mg kg^−1, intraperitoneally) | mortality ([3]; 10, 20 and 40 mg kg^−1, intraperitoneally) | MIC [4] | MHC10 (μM), minimum hemolytic concentration (human red blood cells [5]) | median viability of PBMCs [6] | protection against proteolysis (Proteinase K) | plasma protein binding [7] | MHC10 (μM), minimum hemolytic concentration (human red blood cells [8]) | MIC90 (Escherichia coli; against E. coli, microbroth dilution, 5x10^5 cfu/mL, 20-24 h at 37 °C, turbidity 600 nm, n = 5, median) |
| --- | --- | --- | --- | --- | --- | --- | --- | --- | --- | --- | --- | --- | --- | --- | --- | --- | --- | --- | --- |
| CC(C)[C@@H]1NC(=O)CNC(=O)[C@H](CCCNC(=N)N)NC(=O)[C@H](C(C)C)NC(=O)[C@H](CCCNC(=N)N)NC(=O)[C@H](C)NC(=O)[C@H](Cc2ccc(O)cc2)NC(=O)[C@H](C(C)C)NC(=O)[C@@H](NC(=O)[C@H](Cc2c[nH]c3ccccc23)NC(=O)[C@@H](N)CCCNC(=N)N)CSSC[C@@H](C(=O)N[C@@H](Cc2c[nH]c3ccccc23)C(=O)O)NC(=O)[C@H](CCCNC(=N)N)NC(=O)[C@H](CCCNC(=N)N)NC(=O)[C@H](Cc2ccc(O)cc2)NC(=O)[C@H](CCCNC(=N)N)NC1=O [compound 1, reference compound] (H-RWCVYARVRGVRYRRCW-OH; disulfide 3-16) | 0.8 µM (≈ 1.83 µg/mL) | 1.6 µM (≈ 3.65 µg/mL) | no measurable hemolysis | 0.8 µM (≈ 1.83 µg/mL) | 3.12 µM (≈ 7.13 µg/mL) | 1.2 µM (≈ 2.74 µg/mL) | 1.2 µM (≈ 2.74 µg/mL) | – | – | – | – | – | – | – | – | – | – | – | – |
| CC[C@@H](C)[C@@H](NC(=O)[C@@H](CCCNC(=N)N)N(C)C(=O)[C@H](C)NC(=O)[C@@H](Cc1ccc(O)cc1)NC(=O)[C@H](NC(=O)[C@H](NC(=O)[C@@H](CCCNC(=N)N)NC(=O)[C@@H](Cc1ccccc1)NC(=O)[C@H](NC(=O)[C@@H](Cc1c[nH]c2ccccc12)NC(=O)[C@H](N)CCCCN)[C@H](C)O)C(C)C)[C@H](C)O)C(=O)N[C@@H](C(=O)N[C@H](Cc1ccc(O)cc1)C(=O)N[C@H](CCCNC(=N)N)C(=O)N[C@H](CCCNC(=N)N)C(=O)N[C@@H](C(=O)N[C@H](CCCNC(=N)N)C(N)=O)[C@H](C)O)[C@H](C)O [4f] (H-[dK][dW][dT][dF][dR][dV][dT][dY]A[dNMeR][dI][dT][dY][dR][dR][dT][dR]-NH2) | 1.6 µM (≈ 3.66 µg/mL) | 0.8 µM (≈ 1.83 µg/mL) | – | 1.6 µM (≈ 3.66 µg/mL) | 1.2 µM (≈ 2.75 µg/mL) | 0.4 µM (≈ 0.915 µg/mL) | 0.4 µM (≈ 0.915 µg/mL) | 1.6 µM (≈ 3.66 µg/mL) | no signs of toxicity | mild symptoms such as wrinkled skin and loss in body weight | Visible signs of toxicity such as wrinkled skin, poor motility, and loss in body weight | none of the doses led to mortality | 2.4 µM (≈ 5.49 µg/mL) | 50 µM | ~85% | total protection against proteolysis | very high plasma protein binding | – | – |
| CC[C@H](C)[C@@H]1NC(=O)[C@H](CCCNC(=N)N)N(C)C(=O)[C@@H](C(C)C)NC(=O)[C@H](Cc2ccc(O)cc2)NC(=O)[C@@H]2CSSC[C@H](NC1=O)C(=O)N[C@@H](Cc1ccc(O)cc1)C(=O)N[C@@H](CCCNC(=N)N)C(=O)N[C@@H](CCCNC(=N)N)C(=O)N[C@H](C(=O)N[C@@H](CCCNC(=N)N)C(N)=O)CSSC[C@H](NC(=O)[C@H](Cc1c[nH]c3ccccc13)NC(=O)[C@@H](N)CCCCN)C(=O)N[C@@H](Cc1ccccc1)C(=O)N[C@@H](CCCNC(=N)N)C(=O)N[C@@H](C(C)C)C(=O)N2 [4b] (H-KWCFRVCY[dV][NMeR]ICYRRCR-NH2; disulfide 3-16, 7-12) | – | – | – | – | – | – | – | – | – | – | – | – | – | – | – | – | – | 12.5 µM | 0.2 µM (≈ 0.464 µg/mL) |
